Values after ≈ are worked out from the molar mass of the structure shown. Where two headings read alike, the source gives them in different places.

The subject of series [1] is Mycobacterium tuberculosis H37Ra/ATCC 25177. Description: In vitro antimycobacterial evaluation, MIC (alamarBlue). Conditions: MT. In general terms: Alamar Blue is a resazurin reagent that responds to reducing activity.
The subject of series [2] is methicillin-resistant S. aureus SA 630. Nature of the series: In vitro antibacterial evaluation, MIC by microtitration broth method. To be noted: Staphylococcus aureus.
Series [3] is described as follows: Lipophilicity determination by HPLC. Format: physicochemical. To be noted: for log D6.5: HPLC C18, MeOH 72%/acetate-buffered saline pH 6.5 28%; for log D7.4: HPLC C18, MeOH 72%/acetate-buffered saline pH 7.4 28%; for log k: logarithm of capacity factor, HPLC C18, MeOH 72%/H2O 28%; for averaged lipophilicity value of log k/log D6.5/log D7.4: average of the three experimental descriptors. From the text: . A chromatographic column Symmetry® C18 5 μm, 4.6 × 250 mm, Part No. W21751W016 (Waters Corp, Milford, MA, USA) was used. The HPLC separation process was monitored by ChemStation for LC 3D systems (Agilent Technologies). Isocratic elution by a mixture of MeOH (HPLC grade, 72%) and H2O-HPLC Mili-Q grade (28%) as a mobile phase was used for the determination of capacity factor k. Isocratic elution by a mixture of MeOH (HPLC grade, 72%) and acetate-buffered saline (pH 7.4 and pH 6.5) (28%) as a mobile phase was used for the determination of distribution coefficient expressed as D7.4 and D6.5. The total flow of the column was 1.0 mL/min, injection was 20 μL, column temperature was 40 °C, and sample temperature was 10 °C. The detection wavelength of 210 nm was chosen. A KI methanolic solution was used for the determination of the dead times (tD). Retention times (tR) were measured in minutes. The capacity factors k were calculated according to the formula k = (tR − tD)/tD, where tR is the retention time of the solute, and tD is the dead time obtained using an unretained analyte. The distribution coefficients DpH were calculated according to the formula DpH = (tR − tD)/tD. Each experiment was repeated three times.

The subject of series [4] is methicillin-resistant S. aureus SA 3202. Description: In vitro antibacterial evaluation, MIC by microtitration broth method. To be noted: Staphylococcus aureus.
For series [5], the system named is human monocytic leukemia cell line THP-1. Nature of the series: In vitro cell viability analysis (CCK-8). It counts as cell-based. Conditions: ± SD, n = 6, medium with 10% FBS, 24 h. The protocol: Human monocytic leukemia THP-1 cells obtained from the European Collection of Cell Cultures (ECACC, Salisbury, UK) were used for in vitro antiproliferative assays. They were routinely cultured in Roswell Park Memorial Institute RPMI 1640 medium supplemented with 10% fetal bovine serum (FBS), 2% L-glutamine, 1% penicillin, and streptomycin (all from Sigma-Aldrich) at 37 °C with 5% CO2. The cells were incubated in a complete medium (i.e., containing FBS) with test compounds at 37 °C with 5% CO2 for 24 h, similarly as we described previously. The effect of the test compounds dissolved in DMSO on cell viability was determined using a Cell Counting Kit-8 (CCK-8; Sigma) according to the manufacturer’s instructions.

Series [6] concerns vancomycin-resistant E. faecalis VRE 342B. Nature of the series: In vitro antibacterial evaluation, MIC by microtitration broth method. Conditions: Enterococcus faecalis.
The subject of series [7] is Enterococcus faecalis ATCC 29212. The description is as above.
Series [8] relates to methicillin-resistant S. aureus 63718. The description is as above. Conditions: Staphylococcus aureus.
The test system of series [9] is Staphylococcus aureus ATCC 29213. Described as above.
The subject of the next series is M. smegmatis ATCC 700084. Description: In vitro antimycobacterial evaluation, MIC (broth dilution micro-method). To be noted: Mycolicibacterium smegmatis. It counts as cell-based, Mycobacterium smegmatis. The protocol:
For M. smegmatis, the broth dilution micro-method in Middlebrook 7H9 medium (Difco) supplemented with ADC Enrichment (Difco) was used. […] Bacterial inocula were prepared by transferring colonies from culture to sterile water. The cell density was adjusted to 0.5 McFarland units using a densitometer (Densi-La-Meter, LIAP, Riga, Latvia). The final inoculum was made by 1:1000 dilution of the suspension with sterile water. Drug-free controls, sterility controls, and controls consisting of medium and DMSO alone were included. The determination of results was performed visually after three days of static incubation in the darkness at 37 °C in an aerobic atmosphere.
(In broth dilution the organism is exposed to a series of concentrations in liquid medium.)

Series [10] has as its system vancomycin-resistant E. faecalis VRE 725B. Description: In vitro antibacterial evaluation, MIC by microtitration broth method. Conditions: Enterococcus faecalis.
Series [11] has as its system vancomycin-resistant E. faecalis VRE 368. Described as above. Conditions: Enterococcus faecalis.
Series [12] relates to Staphylococcus aureus ATCC 29213. Description: Determination of minimum bactericidal concentrations (agar aliquot subculture). To be noted: ATCC29213.
In series [13] the test system is methicillin-resistant S. aureus SA 630. Described as above. To be noted: Staphylococcus aureus.
[14] abbreviates: ATCC700084, 72 h, MS, three days, 37 °C, read-out: MIC.

For the compound `CC(C)C[C@H](NC(=O)c1cc(Cl)ccc1O)C(=O)N[C@@H](Cc1ccccc1)C(=O)Nc1ccc(C(F)(F)F)cc1` [6a], the MIC (as a rule, the lowest concentration found to suppress growth) in series [1] (14 days, 37 °C) was “n.a. n.d. (n.a. = no activity (MIC > 256 µg/mL))”; in series [2] (24 h), 444 µM; in series [4] (24 h), 444 µM; in series [6] (24 h) it was > 256 µg/mL; in series [7] (ATCC29212, 24 h) it was > 256 µg/mL; in series [8] (24 h) it was 444 µM. In addition, the MIC in [9] (ATCC29213, 24 h) was 222 µM; in the series on M. smegmatis ATCC 700084 (setting [14]), > 256 µg/mL; in series [10] (24 h) it was > 256 µg/mL; in [11] (24 h) it was > 256 µg/mL. Further, the “log D6.5” value in series [3] was determined as 1.510. In addition, in series [3], the “log D7.4” value is reported as 1.493. This compound came in with a log k in series [3] of 1.560. In addition, in series [5], the concentration for half-maximal inhibition (IC50) (in general, the concentration needed to halve the response being measured) amounted to 2.2 ± 1.1 µM.
As to `C[C@H](NC(=O)c1cc(Cl)ccc1O)C(=O)Nc1ccc(C(F)(F)F)cc1` [3a, 5-Chloro-2-hydroxy-N-[(2S)-1-oxo-1-{[4-(trifluoromethyl)phenyl]amino}propan-2-yl]benzamide], the MIC result in series [1] (14 days, 37 °C) was “n.a. n.d. (n.a. = no activity (MIC > 256 µg/mL))”; in series [2] (24 h), > 256 µg/mL; in [4] (24 h), > 256 µg/mL; in series [6] (24 h) it was > 256 µg/mL; in series [7] (ATCC29212, 24 h), > 256 µg/mL; in [8] (24 h), > 256 µg/mL. Besides, the minimum inhibitory concentration (MIC) in series [9] (ATCC29213, 24 h) was > 256 µg/mL; in the series on M. smegmatis ATCC 700084 (setting [14]) it was > 256 µg/mL; in series [10] (24 h), > 256 µg/mL; in series [11] (24 h), > 256 µg/mL. Besides, the “log D6.5” value in [3] was found to be 0.804. The “log D7.4” value in series [3] was 0.759. For the same compound, in [3], the “averaged lipophilicity value of log k/log D6.5/log D7.4” value is given as 0.81 ± 0.05. For the same compound, in series [3], the log k stood at 0.866. Moreover, the IC50 in series [5] was > 10 µM.
Turning to `CCC[C@H](NC(=O)c1cc(Cl)ccc1O)C(=O)Nc1ccc(C(F)(F)F)cc1` [3b, 5-Chloro-2-hydroxy-N-[(2S)-1-oxo-1-{[4-(trifluoromethyl)phenyl]amino}pentan-2-yl]benzamide], the MIC result in series [1] (14 days, 37 °C) was “n.a. n.d. (n.a. = no activity (MIC > 256 µg/mL))”; in [2] (24 h), > 256 µg/mL; in series [4] (24 h), > 256 µg/mL; in series [6] (24 h), > 256 µg/mL; in [7] (ATCC29212, 24 h), > 256 µg/mL; in [8] (24 h), > 256 µg/mL. The MIC in series [9] (ATCC29213, 24 h) was > 256 µg/mL; in the series with M. smegmatis ATCC 700084 (setting [14]), > 256 µg/mL; in [10] (24 h), > 256 µg/mL; in [11] (24 h) it was > 256 µg/mL. In series [3], the “log D6.5” value stood at 1.060. Further, the “log D7.4” value in [3] stood at 1.016. In addition, the log k in series [3] stood at 1.141. Also, half-maximal inhibition in series [5] (IC50) required 7.3 ± 1.2 µM.
Turning to `CCC[C@H](NC(=O)c1cc(Cl)ccc1OCc1ccccc1)C(=O)Nc1ccc(C(F)(F)F)cc1` [2b, 2-(Benzyloxy)-5-chloro-N-[(2S)-1-oxo-1-{[4-(trifluoromethyl)phenyl]amino}pentan-2-yl]benzamide], the MIC in series [1] (Table S2), in series [2], in [4], in series [6], in [7] (ATCC29212) and in series [8] was > 256 µg/mL each time. Moreover, the MIC (in series [9] (ATCC29213); in the series with M. smegmatis ATCC 700084 (ATCC700084); in [10]; in series [11]) was > 256 µg/mL throughout. Besides, the “log D6.5” value in [3] stood at 1.742. Also, the “log D7.4” value in series [3] was 1.731. In [3], the log k stood at 1.709. The IC50 in series [5] is > 10 µM.
For the compound `C[C@H](NC(=O)c1cc(Cl)ccc1OCc1ccccc1)C(=O)Nc1ccc(C(F)(F)F)cc1` [2a, 2-(Benzyloxy)-5-chloro-N-[(2S)-1-oxo-1-{[4-(trifluoromethyl)phenyl]amino}propan-2-yl]benzamide], the MIC in [1] (Table S2), in series [2], in series [4], in series [6], in series [7] (ATCC29212) and in series [8] was > 256 µg/mL throughout. Also, the MIC (in [9] (ATCC29213); with M. smegmatis ATCC 700084 (ATCC700084); in series [10]; in series [11]) was > 256 µg/mL in each case. Also, in series [3], the “log D6.5” value stood at 1.489. The “log D7.4” value in [3] is recorded as 1.474. Further, the “averaged lipophilicity value of log k/log D6.5/log D7.4” value in series [3] is reported as 1.47 ± 0.02. Moreover, the log k in [3] is 1.450. For the same compound, the IC50 in [5] is > 10 µM.
For `O=C(N[C@@H](CC1CCCCC1)C(=O)Nc1ccc(C(F)(F)F)cc1)c1cc(Cl)ccc1OCc1ccccc1` [2g, 2-(Benzyloxy)-5-chloro-N-[(2S)-3-cyclohexyl-1-oxo-1-{[4-(trifluoromethyl)phenyl]amino}propan-2-yl]benzamide], the MIC in [1] (Table S2), in series [2], in [4], in [6], in series [7] (ATCC29212) and in series [8] was > 256 µg/mL throughout. In addition, the MIC (in [9] (ATCC29213); with M. smegmatis ATCC 700084 (ATCC700084); in series [10]; in series [11]) was > 256 µg/mL each time. The “log D6.5” value in series [3] was found to be 1.767. The “log D7.4” value in series [3] is 1.746. Moreover, the log k in [3] amounted to 1.820. The IC50 in [5] was > 10 µM.
As for `CC(C)C[C@H](NC(=O)[C@H](Cc1ccccc1)NC(=O)c1cc(Cl)ccc1O)C(=O)Nc1ccc(C(F)(F)F)cc1` [6b], the MIC result in series [1] (14 days, 37 °C) is “n.a. n.d. (n.a. = no activity (MIC > 256 µg/mL))”; in series [2] (24 h), 55.6 µM; in series [4] (24 h), 55.6 µM; in series [6] (24 h) it was > 256 µg/mL; in series [7] (ATCC29212, 24 h), > 256 µg/mL; in series [8] (24 h), 444 µM. The MIC is 55.6 µM in series [9] (ATCC29213, 24 h); > 256 µg/mL in the series on M. smegmatis ATCC 700084 (setting [14]); > 256 µg/mL in series [10] (24 h); > 256 µg/mL in series [11] (24 h). Moreover, in series [3], the “log D6.5” value is 1.528. Further, the “log D7.4” value in [3] was 1.453. Besides, the log k in series [3] amounted to 1.547. For the same compound, the half-maximal inhibitory concentration (IC50) in series [5] came to 1.6 ± 1 µM. Moreover, the MBC (in general, the lowest tested concentration that kills the bacteria rather than only halting them) in [12] was 112 µM (≈ 64.5 µg/mL); in series [13], 444 µM (≈ 256 µg/mL).
